Laboratory results taken from patent publication US20060009493A1, “Indolinone hydrazides as c-Met inhibitors” (Sugen, Inc., priority 2003, published 2006).
Several values for one entry are separate records, joined by “and”; a condition that tells them apart may be missing. Identical values can stand only once.

Target: T1, GST fusion protein containing the Met kinase domain (Homo sapiens, UniProt P08581)
T1 construct: Purified GST fusion protein containing the Met kinase domain, Sugen, Inc
Experiment: MET Transphosphorylation Assay (ELISA, poly(Glu,Tyr) 4:1 substrate)
Format: biochemical
Conditions: met transphosphorylation of poly(glutamic acid:tyrosine 4:1) substrate; two values in a cell separated by '/'
Experimental: MET Transphosphorylation Assay
This assay is used to measure phosphotyrosine levels on a poly(glutamic acid:tyrosine (4:1)) substrate as a means for identifying agonists/antagonists of met transphosphorylation of the substrate.
• 1. […] PBS, Gibco Catalog # 450-1300EB • 4. 50 mM HEPES • 5. […] Purified GST fusion protein containing the Met kinase domain, Sugen, Inc. • 7. TBST Buffer. • 8. 10% aqueous (MilliQue H2O) DMSO. • 9. […] 2× Kinase Dilution Buffer: for 100 ml, mix 10 mL 1M HEPES at pH 7.5 with 0.4 mL 5% BSA/PBS, 0.2 mL 0.1 M sodium orthovanadate and 1 mL 5M sodium chloride in 88.4 mL dH2O. • 11. 4×ATP Reaction Mixture: for 10 mL, mix 0.4 mL 1 M manganese chloride and 0.02 mL 0.1 M ATP in […] dH2O. • 12. 4× Negative Controls Mixture: for 10 mL, mix 0.4 mL 1 M manganese chloride in 9.6 mL dH2O.
13. […] 500 mM EDTA. • 15. Antibody Dilution Buffer: for 100 mL, mix 10 mL 5% BSA/PBS, 0.5 mL 5% Carnation Instant Milk® in PBS and 0.1 mL 0.1 M sodium orthovanadate in 88.4 mL TBST. • 16. Rabbit polyclonal antophosphotyrosine antibody, Sugen, Inc. • 17. Goat anti-rabbit horseradish peroxidase conjugated antibody, Biosource, Inc. • 18. ABTS Solution: for 1 L, mix 19.21 g citric acid, 35.49 g Na2HPO4 and 500 mg ABTS with sufficient dH2O to make 1 L. • 19. ABTS/H2O2: mix 15 mL ABST solution with 2 μL H2O2 five minutes before use. • 20. 0.2 M HCl Procedure: • 1. Coat ELISA plates with 2 μg Poly(Glu-Tyr) in 100 μL PBS, store overnight at 4° C. • 2. Block plate with 150 μL of 5% BSA/PBS for 60 min. • 3. Wash plate twice with PBS, once with 50 mM Hepes buffer pH 7.4. • 4. Add 50 μl of the diluted kinase to all wells. (Purified kinase is diluted with Kinase Dilution Buffer. Final concentration should be 10 ng/well.) • 5. Add 25 μL of the test compound (in 4% DMSO) or DMSO alone (4% in dH2O) for controls to plate. • 6. Incubate the kinase/compound mixture for 15 minutes. • 7. Add 25 μL of 40 mM MnCl2 to the negative control wells. • 8. Add 25 μL ATP/MnCl2 mixture to the all other wells (except the negative controls). Incubate for 5 min. • 9. Add 25 μL 500 mM EDTA to stop reaction. • 10. Wash plate 3× with TBST. • 11. Add 100 μL rabbit polyclonal anti-Ptyr diluted 1:10,000 in Antibody Dilution Buffer to each well. Incubate, with shaking, at room temperature for one hour. • 12. Wash plate 3× with TBST. • 13. […] Add 100 μL per well and incubate at room temperature, with shaking, for one hour. • 14. Wash plate 1× with PBS. • 15. Add 100 μl of ABTS/H2O2 solution to each well. • 16. If necessary, stop the development reaction with the addition of […] of 0.2M HCl per well. • 17.

T1 sequence (P08581 1078-1345 limits assumed): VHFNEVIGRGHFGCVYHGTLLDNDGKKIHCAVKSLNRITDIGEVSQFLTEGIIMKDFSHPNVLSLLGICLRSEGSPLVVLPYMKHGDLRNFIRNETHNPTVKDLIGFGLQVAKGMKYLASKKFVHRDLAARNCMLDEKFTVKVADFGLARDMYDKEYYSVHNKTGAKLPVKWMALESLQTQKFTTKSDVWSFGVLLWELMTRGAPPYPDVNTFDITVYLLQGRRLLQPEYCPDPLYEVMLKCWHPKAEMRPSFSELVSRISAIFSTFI

| Compound | IC50 |
| --- | --- |
| O=C(Cc1c[nH]c(=O)[nH]c1=O)N/N=C1\C(=O)Nc2ccccc21 [II-90, (2,4-Dioxo-1,2,3,4-tetrahydro-pyrimidin-5-yl)-acetic acid [(3Z)-2-oxo-1,2-dihydro-indol-3-ylidene]-hydrazide] | > 20 µM |
| Cc1ccc(CC(=O)N/N=C2\C(=O)Nc3ccccc32)cc1 [II-11, p-Tolyl-acetic acid [(3Z)-2-oxo-1,2-dihydro-indol-3-ylidene]-hydrazide] | > 20 µM |
| O=C1Nc2ccccc2/C1=N/NC(=O)C(CO)c1ccccc1 (stereo not shown) [Example I-7, 3-Hydroxy-2-phenyl-propionic acid [(3Z)-2-oxo-1,2-dihydro-indol-3-ylidene]-hydrazide] | > 20 µM |
| O=C(Cc1ccc(O)c([N+](=O)[O-])c1)N/N=C1\C(=O)Nc2ccccc21 [II-46, (4-Hydroxy-3-nitro-phenyl)-acetic acid [(3Z)-2-oxo-1,2-dihydro-indol-3-ylidene]-hydrazide] | 0.61 µM |
| O=C(Cc1ccc(O)cc1)N/N=C1\C(=O)Nc2ccc(Br)cc21 [II-20, (4-Hydroxy-phenyl)-acetic acid [(3Z)-5-bromo-2-oxo-1,2-dihydro-indol-3-ylidene]-hydrazide] | 0.024 µM |
| O=C(Cc1ccc(O)c(O)c1)N/N=C1\C(=O)Nc2ccccc21 [II-41, (3,4-Dihydroxy-phenyl)-acetic acid [(3Z)-2-oxo-1,2-dihydro-indol-3-ylidene]-hydrazide] | 1.77 µM |
| (3-Chloro-4-hydroxy-phenyl)-acetic acid [(3Z)-4,7-dimethyl-2-oxo-1,2-dihydro-indol-3-ylidene]-hydrazide [II-48] | 0.02 µM |
| CC(C(=O)N/N=C1\C(=O)Nc2ccc(NC(=O)CN3CCOCC3)cc21)c1ccc(F)cc1 (stereo not shown) [Example I-54] | 5.92 µM |
| Cc1ccc(C)c2c1NC(=O)/C2=N\NC(=O)Cc1ccc(O)c(F)c1 [II-49, (3-Fluoro-4-hydroxy-phenyl)-acetic acid [(3Z)-4,7-dimethyl-2-oxo-1,2-dihydro-indol-3-ylidene]-hydrazide] | < 0.0091 µM |
| COc1ccc(CC(=O)N/N=C2\C(=O)Nc3c(C)ccc(C)c32)cn1 [II-45, (6-Methoxy-pyridin-3-yl)-acetic acid [(3Z)-4,7-dimethyl-2-oxo-1,2-dihydro-indol-3-ylidene]-hydrazide] | 0.11 µM |
| O=C(Cc1ccc2c(c1)OCO2)N/N=C1\C(=O)Nc2ccccc21 [Example I-23, Benzo[1,3]dioxol-5-yl-acetic acid [(3Z)-2-oxo-1,2-dihydro-indol-3-ylidene]-hydrazide] | 0.15 µM |
| O=C(Cc1ccc(O)cc1)N/N=C1\C(=O)Nc2ccc(Br)c(-c3cccc(F)c3)c21 [Example I-13, (4-Hydroxy-phenyl)-acetic acid [(3Z)-5-bromo-4-(3-fluoro-phenyl)-2-oxo-1,2-dihydro-indol-3-ylidene]-hydrazide] | 1.06 µM |
| O=C(Cc1ccc(O)cc1)N/N=C1\C(=O)Nc2cccc(-c3cccc(F)c3)c21 [Example I-14, (4-Hydroxy-phenyl)-acetic acid [(3Z)-4-(3-fluoro-phenyl)-2-oxo-1,2-dihydro-indol-3-ylidene]-hydrazide] | 0.5 µM |
| Cn1cc(CC(=O)N/N=C2\C(=O)Nc3cc(Cl)c(C(=O)NCCN4CCOCC4)cc32)ccc1=O [Example I-46, (3Z)-6-Chloro-3-{[2-(1-methyl-6-oxo-1,6-dihydro-pyridin-3-yl)-acetyl]-hydrazono}-2-oxo-2,3-dihydro-1H-indole-5-carboxylic acid (2-morpholin-4-yl-ethyl)-amide] | 5.84 µM |
| O=C(Cc1ccc(O)nc1)N/N=C1\C(=O)Nc2ccc(C(=O)N3CCC[C@@H]3CNC3CC3)c(Cl)c21 [Example I-45, (6-Hydroxy-pyridin-3-yl)-acetic acid [(3Z)-4-chloro-5-[(2R)-2-cyclopropylaminomethyl-pyrrolidine-1-carbonyl]-2-oxo-1,2-dihydro-indol-3-ylidene]-hydrazide] | 1.3 µM |
| O=C(Cn1ccc(=O)[nH]c1=O)N/N=C1\C(=O)Nc2ccccc21 [II-71, (2,4-Dioxo-3,4-dihydro-2H-pyrimidin-1-yl)-acetic acid [(3Z)-2-oxo-1,2-dihydro-indol-3-ylidene]-hydrazide] | > 20 µM |

| Compound | IC50 |
| --- | --- |
| O=C(Cc1ccc(O)cc1)N/N=C1\C(=O)Nc2cccc(-c3ccc(F)cc3)c21 [Example I-15, (4-Hydroxy-phenyl)-acetic acid [(3Z)-4-(4-fluoro-phenyl)-2-oxo-1,2-dihydro-indol-3-ylidene]-hydrazide] | 0.89 µM |
| O=C(Cc1ccc(O)c(Cl)c1)N/N=C1\C(=O)Nc2ccc(C(=O)O)c(Cl)c21 [Example I-37, (3Z)-4-Chloro-3-{[2-(3-chloro-4-hydroxy-phenyl)-acetyl]-hydrazono}-2-oxo-2,3-dihydro-1H-indole-5-carboxylic acid] | 0.029 µM |
| O=C(Cc1ccncc1)N/N=C1\C(=O)Nc2c(Cl)ccc(Cl)c21 [II-66, Pyridin-4-yl-acetic acid [(3Z)-4,7-dichloro-2-oxo-1,2-dihydro-indol-3-ylidene]-hydrazide] | 0.013 µM |
| CS(=O)(=O)c1ccc2c(c1)/C(=N/NC(=O)Cc1ccc(O)cc1)C(=O)N2 [Example I-9, (4-Hydroxy-phenyl)-acetic acid [(3Z)-5-methanesulfonyl-2-oxo-1,2-dihydro-indol-3-ylidene]-hydrazide] | < 0.0091 µM and 0.022 µM |
| O=C1Nc2c(Cl)ccc(Cl)c2/C1=N/NC(=O)C1Cc2ccccc2C1 [Example I-57] | > 20 µM |
| O=C1Nc2ccccc2/C1=N/NC(=O)C1Cc2ccccc2C1 [Example I-59, Indan-2-carboxylic acid [(3Z)-2-oxo-1,2-dihydro-indol-3-ylidene)-hydrazide] | > 20 µM |
| CN(C)CC#Cc1ccc2c(c1)/C(=N/NC(=O)Cc1ccc(F)cc1)C(=O)N2 [Example I-50, (4-Fluoro-phenyl)-acetic acid [(3Z)-5-(3-dimethylamino-prop-1-ynyl)-2-oxo-1,2-dihydro-indol-3-ylidene]-hydrazide] | 11.9 µM |
| O=C(Cc1cccc(Cl)c1)N/N=C1\C(=O)Nc2ccc(Br)cc21 [II-15, (3-Chloro-phenyl)-acetic acid [(3Z)-5-bromo-2-oxo-1,2-dihydro-indol-3-ylidene]-hydrazide] | 13.7 µM |
| O=C(CCc1ccc(O)cc1)N/N=C1\C(=O)Nc2ccccc21 [II-25, 3-(4-Hydroxy-phenyl)-propionic acid [(3Z)-2-oxo-1,2-dihydro-indol-3-ylidene]-hydrazide] | 6.35 µM |
| O=C1Nc2ccccc2/C1=N/NC(=O)C(O)c1ccc(O)cc1 (stereo not shown) [Example I-3, Hydroxy-(4-hydroxy-phenyl)-acetic acid [(3Z)-2-oxo-1,2-dihydro-indol-3-ylidene]-hydrazide] | 10.7 µM |
| Cc1ccc2c(c1)/C(=N/NC(=O)Cc1ccc(O)cc1)C(=O)N2 [II-58, (4-Hydroxy-phenyl)-acetic acid [(3Z)-5-methyl-2-oxo-1,2-dihydro-indol-3-ylidene]-hydrazide] | 0.067 µM |
| COC(=O)c1ccc2c(c1)/C(=N/NC(=O)Cc1ccc(O)cc1)C(=O)N2 [Example I-11, (3Z)-3-{[2-(4-Hydroxy-phenyl)-acetyl]-hydrazono}-(3Z)-2-oxo-2,3-dihydro-1H-indole-5-carboxylic acid methyl ester] | 0.043 µM |
| Cc1cn(CC(=O)N/N=C2\C(=O)Nc3ccccc32)c(=O)[nH]c1=O [II-73, (5-Methyl-2,4-dioxo-3,4-dihydro-2H-pyrimidin-1-yl)-acetic acid [(3Z)-2-oxo-1,2-dihydro-indol-3-ylidene]-hydrazide] | > 20 µM |
| O=C(Cc1ccc(O)c(F)c1)N/N=C1\C(=O)Nc2ccccc21 [II-43, (3-Fluoro-4-hydroxy-phenyl)-acetic acid [(3Z)-2-oxo-1,2-dihydro-indol-3-ylidene]-hydrazide] | 0.054 µM |
| O=C(Cc1ccc(O)cc1)N/N=C1\C(=O)Nc2ccc(F)cc21 [II-19, (4-Hydroxy-phenyl)-acetic acid [(3Z)-5-fluoro-2-oxo-1,2-dihydro-indol-3-ylidene]-hydrazide] | 0.029 µM |
